Data on 16 compounds can be found in PMC4823785, “A Tricholoma matsutake Peptide with Angiotensin Converting Enzyme Inhibitory and Antioxidative Activities and Antihypertensive Effects in Spontaneously Hypertensive Rats” (Scientific Reports, 2016).

The test system of experiment [1] is spontaneously hypertensive rats. Kind of experiment: Antihypertensive action in spontaneously hypertensive rats (SBP, tail-cuff). The conditions noted are these: SHRs, oral, 100 mg/kg BW, at 2 h.
Protocol: All experiments were performed in accordance with the Regulations of Experimental Animal Administration issued by the State Committee of Science and Technology of the People’s Republic of China and also with the approval of the Animal Experimentation Ethics Committee of The Chinese University of Hong Kong which had been procured prior to the animal experiments. SHRs with systolic blood pressure (SBP) higher than 180 mmHg were randomly divided into six groups after acclimation for 1 week. During the acclimatization period prior to the test, the blood pressures of the rats were measured four times weekly. Each group containing four rats. […] The group treated with crude water extract of T. matsutake received the extract at two different concentrations: 200 mg/kg body weight and 400 mg/kg body weight. SBP was measured thrice at each of the following time points: 0, 0.5, 2, 4, 6 and 8 h after drug/sample administration, using a tail-cuff method with a programmable BP-100A electro-sphygmomanometer (Chengdu Taimeng Software Co., Ltd., Chengdu, China).
For experiment [2], the system named is ACE. As to conditions: cited from earlier work.
The target of experiment [3] is T1, ACE (Oryctolagus cuniculus, UniProt P12822).
T1 construct: ACE was prepared using fresh rabbit lungs according to the protocol reported by Hayakari et al; from tissue; host or cells: fresh rabbit lungs (supernatant of homogenate)
T1 sequence (P12822 34-1310): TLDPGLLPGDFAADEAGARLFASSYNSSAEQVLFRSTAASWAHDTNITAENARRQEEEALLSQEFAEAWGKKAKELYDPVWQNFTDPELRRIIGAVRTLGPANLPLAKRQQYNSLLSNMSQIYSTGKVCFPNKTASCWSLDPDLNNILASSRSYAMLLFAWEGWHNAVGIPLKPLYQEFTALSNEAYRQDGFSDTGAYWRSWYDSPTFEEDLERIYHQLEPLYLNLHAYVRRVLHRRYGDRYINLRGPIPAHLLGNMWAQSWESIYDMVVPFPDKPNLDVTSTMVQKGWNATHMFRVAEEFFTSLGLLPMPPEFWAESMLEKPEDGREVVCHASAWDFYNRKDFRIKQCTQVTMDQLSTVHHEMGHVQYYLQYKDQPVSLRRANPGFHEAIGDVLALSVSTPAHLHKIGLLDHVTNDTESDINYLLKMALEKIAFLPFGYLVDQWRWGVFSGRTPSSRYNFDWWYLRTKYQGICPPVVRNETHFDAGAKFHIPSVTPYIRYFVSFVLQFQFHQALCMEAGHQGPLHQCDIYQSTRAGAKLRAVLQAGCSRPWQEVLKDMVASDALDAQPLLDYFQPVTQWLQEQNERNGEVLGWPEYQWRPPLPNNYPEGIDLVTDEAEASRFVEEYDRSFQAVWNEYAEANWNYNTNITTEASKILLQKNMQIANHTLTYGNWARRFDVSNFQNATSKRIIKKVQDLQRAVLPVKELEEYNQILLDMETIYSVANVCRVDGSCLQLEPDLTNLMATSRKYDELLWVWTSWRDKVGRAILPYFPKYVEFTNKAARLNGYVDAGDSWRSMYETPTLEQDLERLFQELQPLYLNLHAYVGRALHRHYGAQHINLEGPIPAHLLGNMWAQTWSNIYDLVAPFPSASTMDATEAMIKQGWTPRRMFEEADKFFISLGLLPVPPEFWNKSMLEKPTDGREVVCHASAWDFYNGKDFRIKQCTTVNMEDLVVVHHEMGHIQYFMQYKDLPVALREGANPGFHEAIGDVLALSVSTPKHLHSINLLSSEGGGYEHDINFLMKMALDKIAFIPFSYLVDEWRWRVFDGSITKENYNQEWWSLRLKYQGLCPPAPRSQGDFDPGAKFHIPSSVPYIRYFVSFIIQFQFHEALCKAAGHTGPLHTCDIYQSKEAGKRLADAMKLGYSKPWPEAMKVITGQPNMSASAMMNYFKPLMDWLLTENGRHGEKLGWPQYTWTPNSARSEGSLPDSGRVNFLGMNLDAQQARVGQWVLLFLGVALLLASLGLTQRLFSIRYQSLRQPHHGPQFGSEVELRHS
Kind of experiment: Assay of ACE inhibitory activity (spectrophotometric, HHL substrate). In kind it is biochemical, rabbit. The conditions noted are these: chemically synthesized peptides; means ± S.D. of three determinations. On the procedure:
ACE was prepared using fresh rabbit lungs according to the protocol reported by Hayakari et al.[35] with some modifications. After washing with ice-cold 0.15 M NaCl, the rabbit lungs without connective tissues were cut up to small pieces and homogenized in 10 volumes of ice-old 0.1 M sodium borate buffer (pH 8.3) containing 0.25 M sucrose and 0.1 mM PMSF. The homogenate was centrifuged at 9,000 rpm for 40 min at 4 °C after dialysis at 4 °C overnight in 0.1 M sodium borate buffer (pH 8.3). The resulting supernatant was centrifuged at 9,000 rpm for 40 min at 4 °C again. The ACE activity in the supernatant was determined and the supernatant was aliquoted and then stored at −20 °C for further experiments.
The ACE inhibitory activity was assayed by using a spectrophotometric method following the protocol described by Cushman[36] with modifications. Briefly, an aliquot (20 μL) of the sample was mixed with 20 μL ACE and 150 μL 5 mM HHL in 0.1 M borate buffer (pH 8.3) containing 0.3 M NaCl. The reaction mixture was incubated at 37 °C for 30 min, and then the reaction was terminated by adding 500 μL 1 M HCl. The hippuric acid formed was extracted with 1.2 mL ethyl acetate and centrifuged at 4,000 rpm for 10 min. Then 800 μL of the upper organic phase was heat-evaporated at 95 °C for 35 min to remove ethyl acetate. The dried residue was dissolved in 800 μL distilled water and vortex mixed, and the absorbance was measured spectrophotometrically at 228 nm to estimate ACE inhibitory activity. ACE-inhibitory activity was calculated by using the equation 1: […]
where A was the absorbance of the solution containing ACE and inhibitor, B was the absorbance of solution containing ACE and inhibitor but terminated in advance, C was the absorbance of the solution containing ACE without inhibitor, and D was the absorbance of the solution containing ACE without inhibitor but terminated in advance. The concentration of the inhibitor required to inhibit 50% of the ACE activity under the above assay conditions was defined as IC50.

Where [4] appears, read: mushroom species printed in the row: Tricholoma matsutake, ref not given.
The mark [5] stands for this setting: peptide from Pleurotus cystidiosus.
Where [6] appears, read: peptide from Tricholoma giganteum.
[7] abbreviates: peptide from Hypsizygus marmoreus.

In general, IC50 refers to the concentration that gives 50% inhibition.

Where two headings read alike, the source gives them in different places. Where no end group is shown, it is not given here.

For `C[C@H](CS)C(=O)N1CCC[C@H]1C(=O)O` [captopril], the “maximum decrease in SBP” value in experiment [1] was determined as 38 mm Hg.

Regarding GQGGP, the IC50 in the experiment with ACE [2] (peptide from Pholiota adiposa) was 100 nM.

As for VIQKYP, in the experiment with ACE [2] (peptide from Grifola frondosa), the 50% inhibitory concentration (IC50) is 120 nM and the “Mode of inhibitory of ACE” value is recorded as “Competitive”.

For AHEPVK, in the experiment with ACE [2] (setting [4]), the IC50 is 63000 nM and the “Mode of inhibitory of ACE” value is reported as “Competitive”. In the experiment on ACE [2] (setting [5]), the IC50 was 62800 nM and the “Mode of inhibitory of ACE” value was “Competitive”.

On ACE [3], WALKGYK [TMP, WALKGYK] gave a concentration for half-maximal inhibition (IC50) of 400 ± 290 nM.

For GQP, in the experiment with ACE [2] (setting [6]), the 50% inhibitory concentration (IC50) is 130 nM and the “Mode of inhibitory of ACE” value is on record as “Competitive”.

Compound IISKIK [IISKIK] registered an IC50 on ACE [3] of 1190 ± 260 nM.

ILSKLK [ILSKLK]: it took 4020 ± 310 nM to reach half-maximal inhibition at ACE [3] (IC50).

Take GPSMR: in the experiment on ACE [2] (setting [5]), the half-inhibitory concentration (IC50) was 278000 nM and the “Mode of inhibitory of ACE” value is “Competitive”.

The compound LIDKVVK [LIDKVVK] gave a 50% inhibitory concentration (IC50) on ACE [3] of 620 ± 420 nM.

As to PSSNK, in the experiment on ACE [2] (peptide from Agaricus bisporus), the 50% inhibitory concentration (IC50) was 129000 nM and the “Mode of inhibitory of ACE” value is “Non- competitive”.

On to RIGLF, for which, in the experiment with ACE [2] (peptide from Agaricus bisporus), the 50% inhibitory concentration (IC50) was 116000 nM and the “Mode of inhibitory of ACE” value is recorded as “Competitive”.

With LLVTLKK [LLVTLKK], at ACE [3], 950 ± 120 nM corresponded to half-maximal inhibition (IC50).

LSMGSASLSP: in the experiment on ACE [2] (setting [7]), the 50% inhibitory concentration (IC50) is 330 nM and the “Mode of inhibitory of ACE” value is recorded as “Non-competitive”.

Regarding RLPSEFDLSAFLRA, in the experiment with ACE [2] (peptide from P. cornucopiae), the IC50 is 280 nM and the “Mode of inhibitory of ACE” value is “Competitive”.

With RLSGQTIEVTSEYLFRH, in the experiment with ACE [2] (peptide from P. cornucopiae), the 50% inhibitory concentration (IC50) is 560 nM and the “Mode of inhibitory of ACE” value is recorded as “Non-competitive”.
